# Test results published in ChEMBL document CHEMBL3885881, “DrugMatrix”.
# Species on record: Rattus norvegicus
# Experiment: DrugMatrix - Regimen: Daily Repeat
# Type: toxicity, organism-based, Sprague-Dawley
# Parameters: regimen Daily Repeat, gender Male, age 6-8 weeks
# Conditions: in vivo, po, route oral GAVAGE, vehicle 100 % WATER; for URIC ACID / ALANINE AMINOTRANSFERASE / ALBUMIN / ALKALINE PHOSPHATASE / ASPARTATE AMINOTRANSFERASE / BLOOD UREA NITROGEN / CARBON DIOXIDE / CHLORIDE / CHOLESTEROL / CREATININE / GLUCOSE / LACTATE DEHYDROGENASE / LIPASE / PHOSPHORUS / POTASSIUM / SODIUM / TOTAL BILIRUBIN / TOTAL PROTEIN / CREATINE PHOSPHOKINASE: tissue Plasma; for ABSOLUTE BASOPHIL / ABSOLUTE EOSINOPHIL / ABSOLUTE LYMPHOCYTE / ABSOLUTE MONOCYTE / ABSOLUTE SEGMENTED NEUTROPHIL / BASOPHIL / EOSINOPHIL / ERYTHROCYTE COUNT / HEMATOCRIT / HEMOGLOBIN / LEUKOCYTE COUNT / LYMPHOCYTE / MEAN CORPUSCULAR HEMOGLOBIN / MEAN CORPUSCULAR HEMOGLOBIN CONCENTRATION / MEAN CORPUSCULAR VOLUME / MONOCYTE / NEUTROPHIL / NUCLEATED RED BLOOD CELLS / PLATELET COUNT: tissue Blood
# [1] = 25 mg/kg, 120 h, dose level Low, time 5 day
# [2] = 120 mg/kg, 72 h, dose level High, time 3 day
# [3] = 120 mg/kg, 120 h, dose level High, time 5 day
structure (smiles),measurement,setting,value
c1ccc([C@H]2CN3CCSC3=N2)cc1 [LEVAMISOLE],URIC ACID,"25 mg/kg, 72 h, dose level Low, time 3 day",1.67 mg/dL
same,ABSOLUTE BASOPHIL,[1],0 CELLS/uL
same,ABSOLUTE EOSINOPHIL,[1],174 CELLS/uL
same,ABSOLUTE LYMPHOCYTE,[1],12224.67 CELLS/uL
same,ABSOLUTE MONOCYTE,[1],328 CELLS/uL
same,ABSOLUTE SEGMENTED NEUTROPHIL,[1],1106.67 CELLS/uL
same,BASOPHIL,[1],0%
same,EOSINOPHIL,[1],1.33%
same,ERYTHROCYTE COUNT,[1],5.32 x10E6/uL
same,HEMATOCRIT,[1],33.6%
same,HEMOGLOBIN,[1],13.4 G/DL
same,LEUKOCYTE COUNT,[1],13.83 x10E3/uL
same,LYMPHOCYTE,[1],88.33%
same,MEAN CORPUSCULAR HEMOGLOBIN,[1],25.2 pg
same,MEAN CORPUSCULAR HEMOGLOBIN CONCENTRATION,[1],39.9 G/DL
same,MEAN CORPUSCULAR VOLUME,[1],63.2 fL
same,MONOCYTE,[1],2.33%
same,NEUTROPHIL,[1],8%
same,NUCLEATED RED BLOOD CELLS,[1],0 /100WBC
same,PLATELET COUNT,[1],1156 x10E3/uL
same,ALANINE AMINOTRANSFERASE,[1],50 u/L
same,ALBUMIN,[1],4.2 G/DL
same,ALKALINE PHOSPHATASE,[1],418 u/L
same,ASPARTATE AMINOTRANSFERASE,[1],86.33 u/L
same,BLOOD UREA NITROGEN,[1],17.67 mg/dL
same,CARBON DIOXIDE,[1],27.33 mmol/L
same,CHLORIDE,[1],100.67 MEQ/L
same,CHOLESTEROL,[1],69.67 mg/dL
same,CREATININE,[1],0.19 mg/dL
same,GLUCOSE,[1],136 mg/dL
same,LACTATE DEHYDROGENASE,[1],423 u/L
same,LIPASE,[1],11 u/L
same,PHOSPHORUS,[1],11.83 mg/dL
same,POTASSIUM,[1],6.36 MEQ/L
same,SODIUM,[1],141.8 MEQ/L
same,TOTAL BILIRUBIN,[1],0.23 mg/dL
same,TOTAL PROTEIN,[1],5.77 G/DL
same,URIC ACID,[1],1.4 mg/dL
same,ABSOLUTE BASOPHIL,[2],0 CELLS/uL
same,ABSOLUTE EOSINOPHIL,[2],0 CELLS/uL
same,ABSOLUTE LYMPHOCYTE,[2],11350 CELLS/uL
same,ABSOLUTE MONOCYTE,[2],85 CELLS/uL
same,ABSOLUTE SEGMENTED NEUTROPHIL,[2],565 CELLS/uL
same,BASOPHIL,[2],0%
same,EOSINOPHIL,[2],0%
same,ERYTHROCYTE COUNT,[2],7.38 x10E6/uL
same,HEMATOCRIT,[2],45.33%
same,HEMOGLOBIN,[2],17.77 G/DL
same,LEUKOCYTE COUNT,[2],12 x10E3/uL
same,LYMPHOCYTE,[2],94%
same,MEAN CORPUSCULAR HEMOGLOBIN,[2],24.1 pg
same,MEAN CORPUSCULAR HEMOGLOBIN CONCENTRATION,[2],39.17 G/DL
same,MEAN CORPUSCULAR VOLUME,[2],61.5 fL
same,MONOCYTE,[2],1%
same,NEUTROPHIL,[2],5%
same,NUCLEATED RED BLOOD CELLS,[2],0 /100WBC
same,PLATELET COUNT,[2],1087.67 x10E3/uL
same,ALANINE AMINOTRANSFERASE,[2],57.33 u/L
same,ALBUMIN,[2],4.4 G/DL
same,ALKALINE PHOSPHATASE,[2],373.67 u/L
same,ASPARTATE AMINOTRANSFERASE,[2],80.33 u/L
same,BLOOD UREA NITROGEN,[2],17.67 mg/dL
same,CARBON DIOXIDE,[2],28.33 mmol/L
same,CHLORIDE,[2],98 MEQ/L
same,CHOLESTEROL,[2],87.33 mg/dL
same,CREATINE PHOSPHOKINASE,[2],366 u/L
same,CREATININE,[2],0.2 mg/dL
same,GLUCOSE,[2],152 mg/dL
same,LACTATE DEHYDROGENASE,[2],277.67 u/L
same,LIPASE,[2],12 u/L
same,PHOSPHORUS,[2],12.7 mg/dL
same,POTASSIUM,[2],6.52 MEQ/L
same,SODIUM,[2],140.77 MEQ/L
same,TOTAL BILIRUBIN,[2],0.13 mg/dL
same,TOTAL PROTEIN,[2],6 G/DL
same,URIC ACID,[2],2.23 mg/dL
same,ABSOLUTE BASOPHIL,[3],0 CELLS/uL
same,ABSOLUTE EOSINOPHIL,[3],0 CELLS/uL
same,ABSOLUTE LYMPHOCYTE,[3],13503 CELLS/uL
same,ABSOLUTE MONOCYTE,[3],159 CELLS/uL
same,ABSOLUTE SEGMENTED NEUTROPHIL,[3],804.67 CELLS/uL
same,BASOPHIL,[3],0%
same,EOSINOPHIL,[3],0%
same,ERYTHROCYTE COUNT,[3],5.98 x10E6/uL
same,HEMATOCRIT,[3],36.6%
same,HEMOGLOBIN,[3],14.47 G/DL
same,LEUKOCYTE COUNT,[3],14.47 x10E3/uL
same,LYMPHOCYTE,[3],93.33%
same,MEAN CORPUSCULAR HEMOGLOBIN,[3],24.23 pg
same,MEAN CORPUSCULAR HEMOGLOBIN CONCENTRATION,[3],39.53 G/DL
same,MEAN CORPUSCULAR VOLUME,[3],61.17 fL
same,MONOCYTE,[3],1%
same,NEUTROPHIL,[3],5.67%
same,NUCLEATED RED BLOOD CELLS,[3],0 /100WBC
same,PLATELET COUNT,[3],1244.33 x10E3/uL
same,ALANINE AMINOTRANSFERASE,[3],67.33 u/L
same,ALBUMIN,[3],4.1 G/DL
same,ALKALINE PHOSPHATASE,[3],355.33 u/L
same,ASPARTATE AMINOTRANSFERASE,[3],137.33 u/L
same,BLOOD UREA NITROGEN,[3],19.33 mg/dL
same,CARBON DIOXIDE,[3],20.33 mmol/L
same,CHLORIDE,[3],101 MEQ/L
same,CHOLESTEROL,[3],84.33 mg/dL
same,CREATINE PHOSPHOKINASE,[3],932 u/L
same,CREATININE,[3],0.23 mg/dL
same,GLUCOSE,[3],177.33 mg/dL
same,LACTATE DEHYDROGENASE,[3],504.67 u/L
same,LIPASE,[3],12.67 u/L
same,PHOSPHORUS,[3],13.73 mg/dL
same,POTASSIUM,[3],6.59 MEQ/L
same,SODIUM,[3],143.9 MEQ/L
same,TOTAL BILIRUBIN,[3],0.27 mg/dL
same,TOTAL PROTEIN,[3],5.67 G/DL
same,URIC ACID,[3],3.13 mg/dL
